Values of other authors in publication PMC5413030, “Radiochemistry on electrodes: Synthesis of an ^18F-labelled and in vivo stable COX-2 inhibitor” (PLoS ONE, 2017).

What was measured:
[1] = oxidation of the methyl group

Cc1ccc(-c2cc(C(F)(F)F)nn2-c2ccc(S(N)(=O)=O)cc2)cc1 [Celecoxib, 4-[5-(4-Methylphenyl)-3-(trifluoromethyl)-1H-pyrazol-1-yl]benzenesulfonamide]
protein binding in plasma: > 95%
metabolic behavior of celecoxib [1]: almost completely metabolized
